How the values were obtained:
in vivo = assay: in vivo; parameters: species or system SD rats; conditions: male, SD, rat, po
Method: Instrumentation: SCIEX Triple Quad 6500+ triple quadrupole liquid chromatography-mass spectrometry system (LC-MS/MS), operating software is Analyst 1.7.2 (Applied Biosystems, USA); ExionLC liquid chromatography system; Microsoft Excel was used for data calculation and processing. Pharmacokinetic parameters were calculated using the statistical moment method with WinNonlin 8.2 software. Key kinetic parameters included Tmax, T1/2, Cmax, AUC0-24 h etc. Column: Synergi 4 μm Fusion-RP 80 Å Luna C18 2 mm*50 mm, 4 μm; Column temperature: 40° C.; Mobile phase A: Water (0.1% formic acid); Mobile phase B: Acetonitrile; Flow rate: 0.8 mL/min; Gradient elution is adopted, the elution gradient is 0.10 min: 15% B; 1.60 min: 95% B; 1.90 min: 95% B; 1.91 min: 15% B; 2.20 min: 15% B. Injection volume: 1 μL.
Animals: 3 male SD rats with a weight range of 200-220 g were purchased and kept in the laboratory of the Experimental Animal Center for 3 days and then used. They were fasted for 12 hours predose and 4 hours after dosing. Drinking water was free during the test. After the rats were gavage, blood samples were taken according to the established time point.
Solvent: 0.4% ethanol+0.4% Tween80+99.2% (0.5% methylcellulose M450). Preparation of the solution for intragastric administration: Compounds were accurately weighed and added to the solvent. The mixture was then subjected to vortex mixing and sonication until a homogeneous suspension was achieved, thereby preparing medicinal solutions of the desired concentrations.
Compound samples: Typically, multiple structurally analogous compounds (with molecular weights differing by more than 2 units) were accurately weighed and administered together (cassette PK). This approach allows for the simultaneous screening of multiple compounds and comparison of their oral absorption rates. Single compound administration was also employed to study the pharmacokinetics of drug samples in rats.
After intragastric administration, blood was collected from the jugular vein at 0.25, 0.5, 1, 2, 4, 8, 10 and 24 hours. Transfer 20 μL of plasma sample (for blank samples and internal standard blank samples, add 20 μL of blank plasma) to a 1.5 mL centrifuge tube, add 200 μL of internal standard solution (50% methanol in acetonitrile (concentration 100 ng/mL)) (for Double blank samples, add 200 μL of 50% methanol in acetonitrile solution). Vortex the samples for 5 minutes, then centrifuge at 14000 rpm and 4° C. for 5 minutes. Transfer 80 μL and add to 80 μL of water, mix uniformly, and submit for LC-MS/MS analysis.
The compounds were accurately weighed to prepare different concentrations, and quantitative analysis on mass spectrometry was performed to establish a standard curve, and then the concentration of the above-mentioned compound in the plasma was tested to obtain its concentration at different time points. All measurement data were collected and processed by relevant software, and the statistical moment method was used to calculate the pharmacokinetic parameters (mainly including kinetic parameters Tmax, T1/2, Cmax, AUC0-24 h etc).

Jurkat cells = assay: Inhibition of Jurkat cell proliferation (CellTiter-Glo, 72 hours); type: cell-based; conditions: Homo sapiens; Jurkat cells, 72 hours, CellTiter-Glo; read-out: Jurkat (IC50)
Method: Select Jurkat cells in good growth condition and digest them with trypsin. Add fresh culture medium, mix thoroughly, and centrifuge at 1000 rpm for 5 minutes. Seed the cells into a 96-well plate at a density of 10,000 cells per well, and incubate overnight in a 37° C. incubator. On the following day, take out of the culture plate and treat the cells with compounds prepared in a five-fold serial dilution. Return the plate to the 37° C. incubator and continue incubation for 72 hours.
After incubation, bring out the cell culture plate and equilibrate it to room temperature. Add 100 μL of CellTiter-Glo reagent to each well, shake in the dark for 2 minutes, and incubate for 10 minutes. Measure the luminescence using an Enspire plate reader. Calculate the inhibition rate using the following formula: Inhibition rate (%)=(1−(RLU_compound−RLU_blank)/(RLU_DMSO−RLU_blank))×100%. Plot the dose-response curve and calculate the IC50 value using XLFit.

hCTPS1 enzyme = biological target: T1, hCTPS1 enzyme (Homo sapiens, UniProt P17812); assay: Inhibition of CTPS1 enzyme activity (ADP-Glo method); type: biochemical; conditions: hCTPS1, 90 min reaction at 25° C.
T1 sequence (P17812 1-591): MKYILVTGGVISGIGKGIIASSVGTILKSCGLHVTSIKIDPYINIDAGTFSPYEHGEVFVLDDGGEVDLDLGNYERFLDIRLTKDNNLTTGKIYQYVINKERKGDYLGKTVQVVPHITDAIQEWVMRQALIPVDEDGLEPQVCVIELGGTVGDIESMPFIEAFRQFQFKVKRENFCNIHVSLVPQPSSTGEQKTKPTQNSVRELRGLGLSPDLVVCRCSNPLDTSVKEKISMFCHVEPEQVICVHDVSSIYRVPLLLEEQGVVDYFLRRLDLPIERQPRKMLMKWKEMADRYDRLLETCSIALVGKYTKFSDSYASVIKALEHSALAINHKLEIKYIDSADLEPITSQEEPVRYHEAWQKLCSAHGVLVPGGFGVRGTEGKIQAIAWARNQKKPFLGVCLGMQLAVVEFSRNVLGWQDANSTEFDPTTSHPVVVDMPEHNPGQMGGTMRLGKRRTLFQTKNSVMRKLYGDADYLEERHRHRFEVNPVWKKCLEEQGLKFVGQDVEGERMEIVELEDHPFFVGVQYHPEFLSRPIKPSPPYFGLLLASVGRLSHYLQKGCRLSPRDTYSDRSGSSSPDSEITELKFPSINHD
Method: The enzyme activity of CTPS1 was tested using the ADP-Glo method. Compounds were serially diluted in DMSO with 3-fold gradients across ten concentrations. Transfer 0.1 μL of diluted compound to a 384-well plate, centrifuge at 1000 rpm for 1 min. Add 2.5 μL of hCTPS1 enzyme working solution, centrifuge at 1000 rpm for 1 min, and incubate at 25° C. for 10 min. Add 2.5 μL of ATP & UTP solution and incubate at 25° C. for 10 min. Add 5 μL of substrate solution to initiate the reaction and incubate at 25° C. for 90 min. Add 10 μL of ADP-Glo solution to the 384-well plate, centrifuge at 1000 rpm for 1 min, incubate at 25° C. for 40 min, add 20 μL of detection solution, centrifuge at 1000 rpm for 1 min, and incubate at 25° C. for 60 min. […] were read using a BMG microplate reader. Inhibition rate (%) was calculated as follows: Inhibition rate (%)=[(DMSO control well signal−Compound well signal)/(DMSO control well signal−Blank control well signal)]×100%. IC50 values for compounds were analyzed by nonlinear regression in XLFit 5.5.0 software using the formula: Y=Bottom+(Top−Bottom)/(1+10^((LogIC50−X)*HillSlope)) where Y is the inhibition rate and X is the log value of compound concentration.

AUC(0-t) (in vivo; 2 mg/kg) [ng·h/mL]	Cmax (in vivo; 2 mg/kg) [ng/mL]	Tmax (in vivo; 2 mg/kg) [h]	half-life (in vivo; 2 mg/kg) [h]	IC50 (Jurkat cells) [nM]	IC50 (hCTPS1 enzyme) [nM]	AUC(0-t) (in vivo; 1.5 mg/kg) [ng·h/mL]	Cmax (in vivo; 1.5 mg/kg) [ng/mL]	Tmax (in vivo; 1.5 mg/kg) [h]	half-life (in vivo; 1.5 mg/kg) [h]	AUC(0-t) (in vivo; 3 mg/kg) [ng·h/mL]	Cmax (in vivo; 3 mg/kg) [ng/mL]	Tmax (in vivo; 3 mg/kg) [h]	half-life (in vivo; 3 mg/kg) [h]	SMILES
2160	1020	0.25	1.13	< 15	< 25	–	–	–	–	–	–	–	–	CCOc1cncc(-c2ccc(NC(=O)C3(c4ccnc(NS(=O)(=O)C5CC5)n4)CCC(=C(F)C4COC4)CC3)nc2)n1 (stereo not drawn) [Compound 50]
–	–	–	–	< 15	< 25	7640	1210	2	2.01	–	–	–	–	CCOc1cncc(-c2ccc(NC(=O)C3(c4ccnc(NS(=O)(=O)C5CC5)n4)CCC(=C(F)C4CCOCC4)CC3)nc2)n1 (stereo not drawn) [Compound 52]
–	–	–	–	< 15	< 25	–	–	–	–	25100	4540	2.17	2.53	CCOc1cncc(-c2ccc(NC(=O)C3(c4ccnc(NS(=O)(=O)C5CC5)n4)CCC(=CCC(C)(C)O)CC3)nc2)n1 (stereo not drawn) [Compound 58]
–	–	–	–	< 15	< 25	–	–	–	–	37600	4820	2.33	3.03	CCOc1cncc(-c2ccc(NC(=O)C3(c4ccnc(NS(=O)(=O)C5CC5)n4)CCC(=CCC4COC4)CC3)nc2)n1 (stereo not drawn) [Compound 63]
–	–	–	–	< 15	< 25	–	–	–	–	40800	6810	2.17	1.83	CCOc1cncc(-c2ccc(NC(=O)C3(c4cncc(NS(=O)(=O)C5CC5)n4)CCC(=C(F)F)CC3)nc2)n1 (stereo not drawn) [Compound 68]
11300	2330	1.83	1.89	< 15	< 50	–	–	–	–	–	–	–	–	CCOc1cncc(-c2ccc(NC(=O)C3(c4ccnc(NS(=O)(=O)C5CC5)n4)CCC(=C(F)CC4COC4)CC3)nc2)n1 (stereo not drawn) [Compound 69]
